Type in all cases: cell-based, human
Experiment [1] deals with CD14+ monocytes differentiated to M1 macrophages. The experiment in a line: M1 differentiation assay (IL6 by ELISA). The note with it: 10 μM compound. The protocol:
Monocytes were isolated by positive isolation with CD14+ microbeads (Miltenyi, 130-050-201). Monocytes were 99% viable and were 96% purity as analyzed by FACS and CD14+ (BD, 563561). 100,000 monocytes along with compounds at the dose of 10 and 50 μM were allowed to differentiate to macrophages with 10 ng/ml GMCSF (R&D, 15-GM-050/CF) in RPMI complete media (Invitrogen, 22400089) with 15% FBS (Hyclone SV30087.03) and 1% Penicillin-Streptomycin (Gibco, 15140-122). On day 2 and 4 half the media was refreshed with fresh GM-CSF and compounds at 10 and 50 μM dose. On day 6 the macrophages were matured with GMCSF, IFNγ (R&D 285-IF-100/CF) and LPS (Sigma, L6143) in the presence of 10 μM and 50 μM of compounds. After 24 h, supernatant was collected for the measurement of TNFα (DKW, 1117202) IL6 (DKW, 1110602), IL10 (DKW, 1110003) by ELISA. Macrophages were detached gently on ice with EDTA (Invitrogen, 15575-038) and analyzed by FACS (BD LSR Fortessa, 853492). […]
(In general: In an ELISA, binding on a coated surface is turned into a signal by an enzyme label.)

The subject of experiment [2] is PA Patient fibroblasts (Tsi 3618 Trans-Hit Bio). In words: Mitochondrial fusion and networking (high-content imaging). As to conditions: 10 μM compound, 2 hours, compared to vehicle control. Details: key: Mitochondrial elongation and networking was described as slight, mild or good; Mitochondrial elongation and networking was described as slight, mild or good; Mitochondrial elongation and networking was described as slight, mild or good. The protocol: (§1) Cells were seeded in 96-well plates (density 3000 cells/well) in culture minimum MEM (GIBCO, 10370-021) supplemented with 2 mM L-Glutamine (Thermo Fisher Scientific), 15% FBS (Thermo Fisher Scientific 26400044) and 1% penicillin/streptomycin. Cells were incubated for 48 hours (37° C, 5% CO2), then treated with 10 μM compounds from the present disclosure, 1% DMSO (vehicle) or 5 μM FCCP (control) for 2 hours in fasted conditional medium: Agilent XF DMEM (Agilent 103575-100), pH 7.4 supplemented with 10% FBS (Thermo Fisher Scientific 26400044), 0.03% penicillin/streptomycin 1 mM glucose, 2 mM L-glutamine and 1 mM pyruvate.
(§2) After treatment, media was removed, and cells were stained with 100 μl of 1×mixture dye solution of 1 μg/mL JC-1 (Invitrogen Cat #T3168) and 50 ng/ml MitoTracker deep red (Invitrogen Cat #M22426) at 37° C. for 30 minutes. Next, staining was removed, the cells were washed once with 150 μl PBS, and 150 μl of fasted conditional medium (described above) is added to each well. Analysis was carried out on live cells using a Thermo Scientific CellInsight CX7 LZR High-Content Screening Platform. Mitochondrial elongation and networking was described as slight, mild or good.

For experiment [3], the system named is MMA Patient fibroblasts (GM01673, Coriell Institute for Medical Research). The experiment is described as above. Details: key: Mitochondrial elongation and networking was described as slight, mild or good; Mitochondrial elongation and networking was described as slight, mild or good; Mitochondrial elongation and networking was described as slight, mild or good. The note with it: 10 μM compound, 2 hours, compared to vehicle control. The method, then:
as §1, §2

Experiment [4] relates to Methylmalonic Acidemia (MMA) Primary fibroblasts (GM01673, Coriell Institute for Medical Research). The experiment in a line: Measurement of total GSH and GSSG dimer (GSH/GSSG ratio). The note with it: 10 μM compound for 2 hours. The protocol: Primary adherent fibroblasts were cultured in minimum essential medium (MEM) (Gibco, 25030081) supplemented with 2 mM L-Glutamine (Gibco, 25030081), 15% fetal bovine serum (FBS) (Gibco, 26400044) and 1% penicillin/streptomycin (Gibco, 5140122) at 37° C. and 5% CO2. Cells were collected for either passaging or experiment at ˜70-80% confluence. Cells were obtained by trypsinization and seeded in a white cell culture microplates (Thermo Fisher Scientific, 152028) for luminescent measurement. Cells were obtained by trypsinization and […] were seeded and allowed to adhere for 16-18 hours to have confluency around 70-80% in the cell well with culture media. After 24 hours prior to measurements (37° C, 5% CO2) media was changed to Dulbecco's Modified Eagle Medium (DMEM, Agilent Seahorse cat #103575-100) with the appropriate supplements (1 mM glucose, 2 mM L-glutamine, 1 mM pyruvate, 10% FBS).
Assay was performed according to manufacturer instructions (Promega, V6612). At the end of appropriate time point, the assay requires one plate for total measurement of GSH and one plate for GSSG. For every assay a 11-point standard curve is prepared ranging from 8 μM to 0.013 μM. […] Finally, 100 μl/well of Luciferin Detection reagent were added and incubated for 15 minutes before the chemiluminescence was detected. Free GSH/GSSG ratio was calculated as (Total GSH-GSSH)/(GSSG/2). […]

On to `CC1(C)COC(=O)CCC(=O)SCCNC(=O)CCNC(=O)[C@@H]1O` [Compound 206, (R)-15-hydroxy-16,16-dimethyl-1-oxa-6-thia-9,13-diazacycloheptadecane-2,5,10,14-tetraone], for which, in experiment [1], the “decrease of levels of IL-6 protein” value is recorded as “at least 40%”. The entries for the “mitochondrial elongation and networking” value in experiment [2] and in experiment [3] were “mild” and “good”, respectively. The “increase of the GSH/GSSG ratio” value in experiment [4] was “at least 20%”.

Values taken from patent US20230348506A1, “MACROCYCLIC PANTETHEINE DERIVATIVES AND USES THEREOF” (VectivBio Comet AG, priority 2019, published 2023).
